The target in test [1] is T1, WIL-FL (Homo sapiens, UniProt P01721). As to the kind of experiment: Fluorogenic coumarin titration. Format: binding. To be noted: 0.05 in buffer.
For the next test, the system named is 5J8 Fab (LC:HC dimer). The test is described as follows: Binding of 1 by fluorescence. Conditions: 1 at 1 μM. Also noted: species or system human.
Test [2] concerns the target T1, WIL-FL. The test is described as follows: Equilibrium unfolding, urea titration. It is filed as biochemical. Conditions: 1 at 100 μM or 5 at 50 μM, WIL-FL 5 μM; 1.4 M without ligand. The procedure:
Equilibrium unfolding. WIL-FL (5 μM) was titrated against urea in 50 mM sodium phosphate buffer, pH 7.0, containing 50 μM 5 or 100 μM 1. After incubation overnight at 25° C., intrinsic tryptophan fluorescence emission spectra were measured using a Jasco 8600 fluorimeter (μex=280 nm, μem=300-420 nm). Average wavelength (also known as center of spectral mass) values were calculated using the equation: […]
λi and Ii are the are the wavelength and intensity at i, respectively. Average wavelength data were normalized for comparison. […] Midpoint urea concentrations were calculated by fitting the titration data to a 2-state unfolding equation: […]
x is the urea concentration (M), G is the free energy of unfolding (kJ mol^−1), m is the denaturant dependence of the unfolding reaction (kJ mol^−1 M^−1), R is the ideal gas constant, T is the temperature in K, a and c are the fluorescence of the folded and unfolded states, and b and d are the denaturant dependence of the fluorescence of the folded and unfolded states, respectively.

The target in the next test is JTO-V (Homo sapiens, UniProt P01721). The test is described as follows: NMR native-state hydrogen-deuterium exchange. It is filed as biochemical. Conditions: 1 at 500 μM. How it is done:
(§1) Native-state hydrogen exchange experiments were measured for WIL-V at 0.2 mM and JTO-V at 0.1 mM with or without 0.5 mM 1. […] Per-residue exchange rates k, were converted to free energies using the equation where krc are the residue-specific exchange rates of unprotected amides (18):
(§2) To verify that binding of 1 reduces LC unfolding under non-denaturing conditions, we measured residue-specific hydrogen-deuterium exchange rates by NMR of WIL-V and JTO-V (100 μM) in the absence of or with 1 (500 μM). These rates (the decrease in intensity of the HSQC peak associated with each amide) are converted to free energies that report on each amide's folding equilibrium by normalizing for the published exchange rates of amides in unstructured peptides.

The target of another test is WIL-V (Homo sapiens, UniProt P01721). The test is described as follows: NMR native-state hydrogen-deuterium exchange. Format: biochemical. To be noted: 1 at 500 μM. How it is done: as §1, §2
In a further test the test system is WIL-FL C214S. The test is described as follows: Aggregation measured by SEC (disappearance of soluble dimeric LC). To be noted: 1 at 200 μM, LC 10 μM, pH 5, 37° C.; 0.066 hr^−1 in the absence of 1. Format: biochemical, human. How it is done:
Aggregation. WIL C214S was dialyzed into ddH2O and filtered. Each 1 ml reaction contained 10 μM LC, ddH2O, 1% DMSO or 200 μM 1 in 1% DMSO, 150 mM NaCl, and ABC buffer (20 mM sodium acetate, 20 mM boric acid, 20 mM sodium citrate, pH 5 with HCl). Components are listed in the order they were added.
For analysis by SEC, reactions were set up in 2 ml tubes (Axygen #SCT-200-B-S) equipped with 4 mm stir bars. For each experiment, four reactions (two replicates each of vehicle and 1) were placed in a microfuge tube rack on top of the center of a stir plate. Reactions were stirred at approximately 2,000 rpm at 37° C., and 60 μl aliquots were removed at the indicated timepoints. Aliquots were centrifuged at 16,000 g at 4° C. for 5 min. 10 μl of the supernatant was injected into a Waters Acquity H-Class Bio-UPLC (ultra performance liquid chromatography) instrument equipped with a BEH200 SEC column (Waters, Milford, MA) equilibrated with PBS with 1 mM EDTA. At the end of an experiment, stir bars were washed for at least 3 h with 1 M NaOH, followed by at least 3 h with 6 M GuHCl at room temperature to remove residual aggregates.
Thus, we also quantified aggregation by measuring the rate of disappearance of soluble dimeric LC using size exclusion chromatography (SEC) (4). […]

Another test deals with 5J8 Fab. As to the kind of experiment: PK proteolysis. It is filed as biochemical, human.

Structures are written as SMILES.

Consider `CCN(CC)c1ccc2c(C)cc(=O)oc2c1` [Compound 1, 7-diethylamino-4-methylcoumarin], for which the “FP of 1 in the WIL-FL•1 complex” value at WIL-FL [1] turned out to be 0.35. The “binding to 1 as measured by fluorescence” value in the test on 5J8 Fab (LC:HC dimer) is given as “no apparent binding”. For the same compound, the “midpoint concentration of urea required to unfold the FL LC” value on WIL-FL [2] is recorded as 2.0 M. Moreover, the “average stabilization (free energy from exchange rates)” value at JTO-V and at WIL-V was 0.6 kcal/mol each time. In addition, the kagg in the test on WIL-FL C214S was 0.011 h⁻¹. Moreover, the “protection from PK proteolysis” value with 5J8 Fab is “does not protect”.

The record behind these values is US11945806B2, “Stabilization of amyloidogenic immunoglobulin light chains” (The Scripps Research Institute, priority 2019, dated 2024).
